Common to all, as to experiment: Caspase Inhibition Assay
Test [1] has as its target Caspase-8 (Homo sapiens, UniProt Q14790). As to the method: (§1) The substrate peptides terminating in AMC are processed by caspases with or without inhibitors, and the accumulation of AMC was assessed with a Cytofluor fluorescent plate reader at excitation and emission wavelengths of 380 and 460 nm. Compounds were tested, and full IC50 curves were run for all compounds expressing measurable inhibitory activity.

Test [2] deals with T1, Caspase-7 (Homo sapiens, UniProt P55210).
T1 sequence (P55210 whole entry): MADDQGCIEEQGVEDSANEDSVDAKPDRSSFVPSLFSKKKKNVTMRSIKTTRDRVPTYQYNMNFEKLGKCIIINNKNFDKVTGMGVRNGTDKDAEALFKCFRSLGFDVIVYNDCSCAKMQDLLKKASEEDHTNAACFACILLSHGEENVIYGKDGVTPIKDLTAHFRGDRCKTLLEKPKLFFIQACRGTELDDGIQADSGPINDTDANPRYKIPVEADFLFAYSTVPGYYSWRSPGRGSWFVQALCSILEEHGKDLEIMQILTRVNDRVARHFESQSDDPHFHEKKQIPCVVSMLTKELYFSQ
As to the method:
as §1

For test [3], the target named is T2, Caspase-1 (Homo sapiens, UniProt P29466).
T2 sequence (P29466 whole entry): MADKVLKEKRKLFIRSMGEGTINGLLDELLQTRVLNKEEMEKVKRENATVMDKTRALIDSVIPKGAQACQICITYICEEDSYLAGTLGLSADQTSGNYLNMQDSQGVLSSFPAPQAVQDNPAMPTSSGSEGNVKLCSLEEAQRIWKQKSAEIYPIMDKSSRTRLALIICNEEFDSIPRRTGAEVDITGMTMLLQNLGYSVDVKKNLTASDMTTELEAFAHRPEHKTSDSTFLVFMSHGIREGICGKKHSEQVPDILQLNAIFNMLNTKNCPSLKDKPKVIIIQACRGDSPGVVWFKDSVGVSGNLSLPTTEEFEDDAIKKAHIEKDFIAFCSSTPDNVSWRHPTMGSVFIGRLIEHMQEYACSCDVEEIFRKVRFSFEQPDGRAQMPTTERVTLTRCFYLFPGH
As to the method:
as §1

For test [4], the target named is T3, Caspase-3 (Homo sapiens, UniProt P42574).
T3 sequence (P42574 whole entry): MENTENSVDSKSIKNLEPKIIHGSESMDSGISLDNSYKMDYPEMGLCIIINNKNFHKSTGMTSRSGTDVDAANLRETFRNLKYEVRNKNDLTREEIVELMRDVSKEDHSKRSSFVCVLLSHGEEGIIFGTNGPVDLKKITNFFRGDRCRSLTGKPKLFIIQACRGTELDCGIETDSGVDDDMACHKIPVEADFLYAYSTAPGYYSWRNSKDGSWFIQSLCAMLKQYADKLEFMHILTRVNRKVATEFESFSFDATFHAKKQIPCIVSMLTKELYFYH
How it is done: as §1

The structures appear in SMILES notation. Bounds are passed on as bounds.

Sequence of Caspase-8 (Q14790 217-374 limits assumed): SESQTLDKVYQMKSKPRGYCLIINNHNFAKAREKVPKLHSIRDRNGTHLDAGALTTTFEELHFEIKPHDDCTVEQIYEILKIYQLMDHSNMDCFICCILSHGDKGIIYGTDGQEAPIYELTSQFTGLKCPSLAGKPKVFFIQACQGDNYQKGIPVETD
Sequence of Caspase-8 (Q14790 385-479 limits assumed): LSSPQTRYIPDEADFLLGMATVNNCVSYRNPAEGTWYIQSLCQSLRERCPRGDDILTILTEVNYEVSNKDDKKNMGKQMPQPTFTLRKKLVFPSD

`COc1ccc(OC)c(C(O)C(=O)N[C@H](C(=O)N[C@@H](CC(=O)O)C(=O)CSCc2ccccc2)C(C)C)c1` (stereo partly drawn) [(3S)-5-(benzylsulfanyl)-3-[(2S)-2-[2-(2,5-dimethoxyphenyl)-2-hydroxyacetamido]-3-methylbutanamido]-4-oxopentanoic acid]: the IC50 (in general, the concentration that inhibits the measured activity by half) in test [1] stood at 975 nM; in test [2], 545 nM; in test [3], 4490 nM; in test [4], 29 nM.
Taken in the same sequence, the figures for `COc1ccc(C(C)=O)cc1C(O)C(=O)N[C@H](C(=O)N[C@@H](CC(=O)O)C(=O)CSCc1ccccc1)C(C)C` (stereo partly drawn) [(3S)-5-(benzylsulfanyl)-3-[(2S)-2-[2-(5-acetyl-2-methoxyphenyl)-2-hydroxyacetamido]-3-methylbutanamido]-4-oxopentanoic acid] were 635 nM, 290 nM, 4850 nM and 16 nM.
For `COc1ccc(Br)cc1C(O)C(=O)N[C@H](C(=O)N[C@@H](CC(=O)O)C(=O)CSCc1ccccc1)C(C)C` (stereo partly drawn) [(3S)-5-(benzylsulfanyl)-3-[(2S)-2-[2-(5-bromo-2-methoxyphenyl)-2-hydroxyacetamido]-3-methylbutanamido]-4-oxopentanoic acid], the IC50 came out at 104 nM in test [1], 91 nM in test [2], 1540 nM in test [3] and 5 nM in test [4].
For `COc1ccc(I)cc1C(O)C(=O)N[C@H](C(=O)N[C@@H](CC(=O)O)C(=O)CSCc1ccccc1)C(C)C` (stereo partly drawn) [(3S)-5-(benzylsulfanyl)-3-[(2S)-2-[2-hydroxy-2-(5-iodo-2-methoxyphenyl)acetamido]-3-methylbutanamido]-4-oxopentanoic acid] the same measures were 98 nM, 135 nM, 675 nM and 16 nM.
Regarding `COc1ccc(Br)cc1[C@@H](C(=O)N[C@H](C(=O)N[C@@H](CC(=O)O)C(=O)CSCc1ccccc1)C(C)C)C(C)C` [(3S)-5-(benzylsulfanyl)-3-[(2S)-2-[(2S)-2-(5-bromo-2-methoxyphenyl)-3-methylbutanamido]-3-methylbutanamido]-4-oxopentanoic acid], the IC50 is 1320 nM in test [1]; more than 10000 nM in test [2]; more than 10000 nM in test [3]; 9440 nM in test [4] (pH 7, 37 °C).
`COc1ccc(Br)cc1[C@H](Cc1ccccc1)C(=O)N[C@H](C(=O)N[C@@H](CC(=O)O)C(=O)CSCc1ccccc1)C(C)C` [(3S)-5-(benzylsulfanyl)-3-[(2S)-2-[(2S)-2-(5-bromo-2-methoxyphenyl)-3-phenylpropanamido]-3-methylbutanamido]-4-oxopentanoic acid]: the IC50 was determined as 5830 nM in test [1]; 4200 nM in test [2]; 5810 nM in test [3]; 181 nM in test [4] (pH 7, 37 °C).
Taken in the same sequence, the figures for `C=CC[C@H](C(=O)N[C@H](C(=O)N[C@@H](CC(=O)O)C(=O)CSCc1ccccc1)C(C)C)c1cc(Br)ccc1OC` [(3S)-5-(benzylsulfanyl)-3-[(2S)-2-[(2S)-2-(5-bromo-2-methoxyphenyl)pent-4-enamido]-3-methylbutanamido]-4-oxopentanoic acid] were 1620 nM, 2210 nM, 6510 nM and 80 nM.
For the compound `C#CC[C@H](C(=O)N[C@H](C(=O)N[C@@H](CC(=O)O)C(=O)CSCc1ccccc1)C(C)C)c1cc(Br)ccc1OC` [(3S)-5-(benzylsulfanyl)-3-[(2S)-2-[(2S)-2-(5-bromo-2-methoxyphenyl)pent-4-ynamido]-3-methylbutanamido]-4-oxopentanoic acid], the IC50 in test [1] is 4470 nM; in test [2], 3620 nM; in test [3], more than 10000 nM; in test [4] (pH 7, 37 °C), 341 nM.
Taken in the same sequence, the figures for `CCC[C@H](C(=O)N[C@H](C(=O)N[C@@H](CC(=O)O)C(=O)CSCc1ccccc1)C(C)C)c1cc(Br)ccc1OC` [(3S)-5-(benzylsulfanyl)-3-[(2S)-2-[(2S)-2-(5-bromo-2-methoxyphenyl)pentanamido]-3-methylbutanamido]-4-oxopentanoic acid] were 4500 nM, 5300 nM, more than 10000 nM and 274 nM.
For the compound `COc1ccc(Br)cc1[C@H](C)C(=O)N[C@H](C(=O)N[C@@H](CC(=O)O)C(=O)CSCc1ccccc1)C(C)C` [(3S)-5-(benzylsulfanyl)-3-[(2S)-2-[(2S)-2-(5-bromo-2-methoxyphenyl)propanamido]-3-methylbutanamido]-4-oxopentanoic acid], the IC50 was 5380 nM in test [1]; 3690 nM in test [2]; more than 10000 nM in test [3]; 176 nM in test [4] (pH 7, 37 °C).
As for `COc1ccc(-c2nc(C)no2)cc1C(O)C(=O)N[C@H](C(=O)N[C@@H](CC(=O)O)C(=O)CSCc1ccccc1)C(C)C` (stereo partly drawn) [(3S)-5-(benzylsulfanyl)-3-[(2S)-2-{2-hydroxy-2-[2-methoxy-5-(3-methyl-1,2,4-oxadiazol-5-yl)phenyl]acetamido}-3-methylbutanamido]-4-oxopentanoic acid], the IC50 in test [1] worked out at 280 nM; in test [2] it was 63 nM; in test [3], 2460 nM; in test [4] it was 12 nM.
As for `COc1ccc(Br)cc1C1(C(=O)N[C@H](C(=O)N[C@@H](CC(=O)O)C(=O)CSCc2ccccc2)C(C)C)CC1` [(3S)-5-(benzylsulfanyl)-3-[(2S)-2-{[1-(5-bromo-2-methoxyphenyl)cyclopropyl]formamido}-3-methylbutanamido]-4-oxopentanoic acid], the IC50 was more than 10000 nM in test [1]; more than 10000 nM in test [2]; more than 10000 nM in test [3]; 323 nM in test [4] (pH 7, 37 °C).

The values are drawn from BindingDB's records for doi:10.1016/j.bmcl.2005.05.116 (Merck Frosst Canada, 2005).
